{
  "source": "the supplement of paper PMC8960247",
  "note": "Where a name gives a salt, the structure may show the parent alone. ± gives the standard error.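 Further: immortalized renal angiomyolipoma cells stably carrying empty vector or TSC2, dosed in 384-well plates in DMEM, viability normalized to vehicle-treated wells within each plate.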",
  "data": [
    {"system": "621-103 (TSC2-rescued)", "assay": "relative viability vs DMSO; higher = less cytotoxic", "details": "1 µM; serum: 10% FBS; 72 h", "units": {"relative viability": "%"}, "values": [
      {"smiles": "NC1(c2ccc(-c3nc4ccn5c(=O)[nH]nc5c4cc3-c3ccccc3)cc2)CCC1", "note": "[MK-2206]", "relative viability": "74 ± 2.4"},
      {"smiles": "S=C(NCc1ccc2c(c1)OCO2)N1CCN(c2ncnc3c2oc2ccccc23)CC1", "note": "[MP-470]", "relative viability": "105.95 ± 0.02"},
      {"smiles": "Nc1ccccc1NC(=O)c1ccc(CNC(=O)OCc2cccnc2)cc1", "note": "[MS-275]", "relative viability": "81.09 ± 0.74"},
      {"smiles": "COC(=O)C1=C(C)NC(C)=C(C(=O)OCCN2CCN(C(c3ccccc3)c3ccccc3)CC2)C1c1cccc([N+](=O)[O-])c1", "note": "(configuration not stated) [Manidipine HCl (CV-4093)]", "relative viability": "89.9 ± 1.2"},
      {"smiles": "COC(=O)C1=C(C)NC(C)=C(C(=O)OCCN2CCN(C(c3ccccc3)c3ccccc3)CC2)C1c1cccc([N+](=O)[O-])c1", "note": "(configuration not stated) [Manidipine]", "relative viability": "103 ± 2.2"},
      {"smiles": "CNCCCC12CCC(c3ccccc31)c1ccccc12", "note": "[Maprotiline HCl]", "relative viability": "87.6 ± 2.2"},
      {"smiles": "Cc1nnc(C(C)C)n1[C@H]1C[C@H]2CC[C@@H](C1)N2CC[C@H](NC(=O)C1CCC(F)(F)CC1)c1ccccc1", "note": "[Maraviroc (Selzentry)]", "relative viability": "98.1 ± 1.4"},
      {"smiles": "Cc1ccc(NC(=O)c2ccc(CN3CCN(C)CC3)cc2)cc1Nc1nc(-c2cccnc2)cs1", "note": "[Masitinib (AB1010)]", "relative viability": "104 ± 1.3"},
      {"smiles": "Cc1[nH]c(=O)c(C#N)cc1-c1ccncc1", "note": "[Milrinone (Primacor)]", "relative viability": "91.27 ± 0.77"},
      {"smiles": "O=C1c2c(O)ccc(O)c2C(=O)c2c(NCCNCCO)ccc(NCCNCCO)c21", "note": "[Mitoxantrone]", "relative viability": "8.71 ± 0.34"},
      {"smiles": "NC(=O)c1ncn([C@@H]2O[C@H](CO)[C@@H](O)[C@H]2O)c1O", "note": "[Mizoribine]", "relative viability": "98.1 ± 2.5"},
      {"smiles": "N=C(N)NC(=N)N1CCOCC1", "note": "[Moroxydine]", "relative viability": "92.6 ± 2.9"},
      {"smiles": "CC1(C)CNc2cc(NC(=O)c3cccnc3NCc3ccncc3)ccc21", "note": "[Motesanib DiPhosphate]", "relative viability": "93 ± 1.9"},
      {"smiles": "FC(F)(F)c1ccc(/C=C/c2nc(COc3ccc(CCCCn4ccnn4)cc3)co2)cc1", "note": "[Mubritinib (TAK 165)]", "relative viability": "107 ± 2.1"},
      {"smiles": "CC(C)(C)c1[nH]cnc1/C=c1\\[nH]c(=O)/c(=C/c2ccccc2)[nH]c1=O", "note": "[NPI-2358]", "relative viability": "32.4 ± 0.92"},
      {"smiles": "CC(C)(Cc1ccc2ccccc2c1)NC[C@@H](O)COc1cccc(Cl)c1C#N", "note": "[NPS-2143]", "relative viability": "106.7 ± 0.6"},
      {"smiles": "CCNC(=O)c1noc(-c2cc(C(C)C)c(O)cc2O)c1-c1ccc(CN2CCOCC2)cc1", "note": "[NVP-AUY922]", "relative viability": "4.92 ± 0.055"},
      {"smiles": "CCNC(=O)c1cc2c(-c3cc(OCCN4CCCC4)c(Cl)cc3Cl)nc(N)nc2s1", "note": "[NVP-BEP800]", "relative viability": "43.99 ± 0.26"},
      {"smiles": "Fc1cc(-c2cccc3ncc(-c4cnn(C5CCNCC5)c4)nc23)cc(F)c1CN1CCOCC1", "note": "[NVP-BSK805 dihydrochloride]", "relative viability": "77.1 ± 0.88"}
    ]},
    {"system": "621-103 (TSC2-rescued)", "assay": "relative viability vs DMSO; higher = less cytotoxic", "details": "10 µM; serum: 10% FBS; 72 h", "units": {"relative viability": "%"}, "values": [
      {"smiles": "CCC(C)n1ncn(-c2ccc(N3CCN(c4ccc(OCC5COC(Cn6cncn6)(c6ccc(Cl)cc6Cl)O5)cc4)CC3)cc2)c1=O", "note": "(configuration not stated) [Itraconazole (Sporanox)]", "relative viability": "15.44 ± 0.12"},
      {"smiles": "CCCNC(=O)Nc1ccc(Oc2ncnc3cc(OC)c(OC)cc23)cc1Cl", "note": "[KRN 633]", "relative viability": "99.8 ± 3.4"},
      {"smiles": "O=C(c1ccc(/C=C/c2n[nH]c3ccccc23)cc1)N1CCNCC1", "note": "[KW 2449]", "relative viability": "15.1 ± 0.84"},
      {"smiles": "O=C(c1ccc(F)cc1)C1CCN(CCn2c(=O)[nH]c3ccccc3c2=O)CC1", "note": "[Ketanserin (Vulketan Gel)]", "relative viability": "96.3 ± 1"},
      {"smiles": "O=C(c1ccccc1)c1ccc2n1CCC2C(=O)O", "note": "(configuration not stated) [Ketorolac]", "relative viability": "108 ± 1.6"},
      {"smiles": "CCCCCCCCCCCCCCCC(=O)OC[C@H](O)[C@H]1OC(=O)C(O)=C1O", "note": "[L-Ascorbyl 6-palmitate]", "relative viability": "94.9 ± 5"},
      {"smiles": "Cc1[nH]c2ccccc2c1CCNCc1ccc(/C=C/C(=O)NO)cc1", "note": "[LBH-589 (Panobinostat)]", "relative viability": "1.1 ± 0.019"},
      {"smiles": "Cc1c(C(=O)Nc2ccc(N3C[C@@H](C)O[C@@H](C)C3)nc2)cccc1-c1ccc(OC(F)(F)F)cc1", "note": "[LDE225]", "relative viability": "54.6 ± 1.5"},
      {"smiles": "CS(=O)(=O)CCNCc1ccc(-c2ccc3ncnc(Nc4ccc(OCc5cccc(F)c5)c(Cl)c4)c3c2)o1", "note": "[Lapatinib Ditosylate]", "relative viability": "48.9 ± 1.6"},
      {"smiles": "Nc1cccc2c1CN(C1CCC(=O)NC1=O)C2=O", "note": "(configuration not stated) [Lenalidomide]", "relative viability": "98.62 ± 0.12"},
      {"smiles": "N#Cc1ccc(C(c2ccc(C#N)cc2)n2cncn2)cc1", "note": "[Letrozole]", "relative viability": "101 ± 1.1"},
      {"smiles": "CC(=O)NC[C@H]1CN(c2ccc(N3CCOCC3)c(F)c2)C(=O)O1", "note": "[Linezolid]", "relative viability": "104 ± 3"},
      {"smiles": "CN(C)C(=O)C(CCN1CCC(O)(c2ccc(Cl)cc2)CC1)(c1ccccc1)c1ccccc1", "note": "[Loperamide HCl]", "relative viability": "59.5 ± 0.85"},
      {"smiles": "O=c1cc(-c2ccc(O)c(O)c2)oc2cc(O)cc(O)c12", "note": "[Luteolin (Luteolol)]", "relative viability": "92.4 ± 2"},
      {"smiles": "Cn1cc(/C=C/C(=O)c2cccc(F)c2)cc1/C=C/C(=O)NO", "note": "[MC1568]", "relative viability": "101 ± 1.5"},
      {"smiles": "CC(C)C[C@@H](C=O)NC(=O)[C@H](CC(C)C)NC(=O)[C@H](CC(C)C)NC(=O)OCc1ccccc1", "note": "[MG-132]", "relative viability": "1.393 ± 0.0089"},
      {"smiles": "Nc1ccccc1NC(=O)c1ccc(CNc2nccc(-c3cccnc3)n2)cc1", "note": "[MGCD0103 (Mocetinostat)]", "relative viability": "18.5 ± 0.42"},
      {"smiles": "O=C(CN1C(=O)C2(CCCC2)NC[C@H]1c1cc(F)cc(F)c1)Nc1ccc2c(c1)C[C@@]1(C2)C(=O)Nc2ncccc21", "note": "[MK 3207 hydrochloride]", "relative viability": "102 ± 1.4"},
      {"smiles": "O=C(O)CC[C@H]1CC[C@@](c2cc(F)ccc2F)(S(=O)(=O)c2ccc(Cl)cc2)CC1", "note": "[MK-0752]", "relative viability": "111 ± 1.3"},
      {"smiles": "NC1(c2ccc(-c3nc4ccn5c(=O)[nH]nc5c4cc3-c3ccccc3)cc2)CCC1", "note": "[MK-2206]", "relative viability": "25.2 ± 3.4"},
      {"smiles": "S=C(NCc1ccc2c(c1)OCO2)N1CCN(c2ncnc3c2oc2ccccc23)CC1", "note": "[MP-470]", "relative viability": "112 ± 3.2"},
      {"smiles": "Nc1ccccc1NC(=O)c1ccc(CNC(=O)OCc2cccnc2)cc1", "note": "[MS-275]", "relative viability": "39.1 ± 0.61"},
      {"smiles": "COC(=O)C1=C(C)NC(C)=C(C(=O)OCCN2CCN(C(c3ccccc3)c3ccccc3)CC2)C1c1cccc([N+](=O)[O-])c1", "note": "(configuration not stated) [Manidipine HCl (CV-4093)]", "relative viability": "74.2 ± 1.2"},
      {"smiles": "COC(=O)C1=C(C)NC(C)=C(C(=O)OCCN2CCN(C(c3ccccc3)c3ccccc3)CC2)C1c1cccc([N+](=O)[O-])c1", "note": "(configuration not stated) [Manidipine]", "relative viability": "101 ± 6.2"},
      {"smiles": "CNCCCC12CCC(c3ccccc31)c1ccccc12", "note": "[Maprotiline HCl]", "relative viability": "64.61 ± 0.13"},
      {"smiles": "Cc1nnc(C(C)C)n1[C@H]1C[C@H]2CC[C@@H](C1)N2CC[C@H](NC(=O)C1CCC(F)(F)CC1)c1ccccc1", "note": "[Maraviroc (Selzentry)]", "relative viability": "97.2 ± 1.1"},
      {"smiles": "Cc1ccc(NC(=O)c2ccc(CN3CCN(C)CC3)cc2)cc1Nc1nc(-c2cccnc2)cs1", "note": "[Masitinib (AB1010)]", "relative viability": "36.5 ± 2.2"},
      {"smiles": "Cc1[nH]c(=O)c(C#N)cc1-c1ccncc1", "note": "[Milrinone (Primacor)]", "relative viability": "89.3 ± 2.9"},
      {"smiles": "O=C1c2c(O)ccc(O)c2C(=O)c2c(NCCNCCO)ccc(NCCNCCO)c21", "note": "[Mitoxantrone]", "relative viability": "3.19 ± 0.27"},
      {"smiles": "NC(=O)c1ncn([C@@H]2O[C@H](CO)[C@@H](O)[C@H]2O)c1O", "note": "[Mizoribine]", "relative viability": "97.4 ± 2.2"},
      {"smiles": "N=C(N)NC(=N)N1CCOCC1", "note": "[Moroxydine]", "relative viability": "86.5 ± 2.3"},
      {"smiles": "CC1(C)CNc2cc(NC(=O)c3cccnc3NCc3ccncc3)ccc21", "note": "[Motesanib DiPhosphate]", "relative viability": "98 ± 1.7"},
      {"smiles": "FC(F)(F)c1ccc(/C=C/c2nc(COc3ccc(CCCCn4ccnn4)cc3)co2)cc1", "note": "[Mubritinib (TAK 165)]", "relative viability": "115 ± 1.7"},
      {"smiles": "CC(C)(C)c1[nH]cnc1/C=c1\\[nH]c(=O)/c(=C/c2ccccc2)[nH]c1=O", "note": "[NPI-2358]", "relative viability": "33.1 ± 0.41"},
      {"smiles": "CC(C)(Cc1ccc2ccccc2c1)NC[C@@H](O)COc1cccc(Cl)c1C#N", "note": "[NPS-2143]", "relative viability": "1.29 ± 0.19"},
      {"smiles": "CCNC(=O)c1noc(-c2cc(C(C)C)c(O)cc2O)c1-c1ccc(CN2CCOCC2)cc1", "note": "[NVP-AUY922]", "relative viability": "6.99 ± 0.21"},
      {"smiles": "CCNC(=O)c1cc2c(-c3cc(OCCN4CCCC4)c(Cl)cc3Cl)nc(N)nc2s1", "note": "[NVP-BEP800]", "relative viability": "4.6 ± 0.3"},
      {"smiles": "Fc1cc(-c2cccc3ncc(-c4cnn(C5CCNCC5)c4)nc23)cc(F)c1CN1CCOCC1", "note": "[NVP-BSK805 dihydrochloride]", "relative viability": "4.07 ± 1.5"}
    ]}
  ]
}
